Test results published in the NIST ThermoML archive (doi:10.1021/je049818g).
± gives the expanded uncertainty stated by the source.

Conditions: Liquid, Hot wire method

CCCCOCCO [2-butoxyethan-1-ol]
Conditions | thermal conductivity [W/m/K]
283.96 K | 0.1381 ± 0.0056
293.67 K | 0.1365 ± 0.0055
303.56 K | 0.135 ± 0.0054
314.25 K | 0.1333 ± 0.0054
323.88 K | 0.1319 ± 0.0053
333.98 K | 0.1305 ± 0.0053
344.05 K | 0.129 ± 0.0052
354.63 K | 0.1272 ± 0.0051
363.59 K | 0.1258 ± 0.0051
373.84 K | 0.1241 ± 0.005

CCC(C)=O [butanone]
Conditions | thermal conductivity [W/m/K]
284.48 K | 0.1501 ± 0.006
294.42 K | 0.1481 ± 0.006
305.02 K | 0.1459 ± 0.0059
314.26 K | 0.1435 ± 0.0058
323.96 K | 0.1414 ± 0.0057
334.71 K | 0.139 ± 0.0056
344.54 K | 0.1362 ± 0.0055
354.33 K | 0.1334 ± 0.0054
364.46 K | 0.1308 ± 0.0053
374.56 K | 0.1284 ± 0.0052

COC [dimethyl ether]
Conditions | thermal conductivity [W/m/K]
229.67 K | 0.1832 ± 0.0074
244.98 K | 0.1762 ± 0.0071
254.6 K | 0.1701 ± 0.0068
271.55 K | 0.1605 ± 0.0064
281.76 K | 0.1537 ± 0.0062
291.33 K | 0.1485 ± 0.006

Cc1ccccc1 [toluene]
Conditions | thermal conductivity [W/m/K]
234.6 K | 0.1477 ± 0.0059
254.58 K | 0.1434 ± 0.0058
273.17 K | 0.1374 ± 0.0055
293.23 K | 0.1334 ± 0.0054
314.68 K | 0.1264 ± 0.0051
334.99 K | 0.1211 ± 0.0049
354.89 K | 0.1136 ± 0.0046
373.92 K | 0.1105 ± 0.0044
